Measured values reported in patent US20220169654A1, “New Organic Compounds” (Servier Pharmaceuticals LLC, priority 2020, published 2022).

What was measured:
MAT2A homodimer = target: T1, MAT2A homodimer (Homo sapiens, UniProt P31153); test: MAT2A inhibition (biochemical, liberated phosphate, PiColorLock Gold); conditions: recombinant MAT2A homodimer; IC50 bin with Max Inh.; read-out: Enzyme Inhibition Bin
T1 construct: inferred from Ni sepharose purification with imidazole elution; made in house; host or cells: Sf9 insect cells, baculovirus (Bac to Bac, pFASTBAC1)
Procedure, shortened: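 Baculovirus/Sf9-expressed, Ni-purified MAT2A (4 μg/mL) preincubated with compound 60 min at 25 °C in Tris pH 8.0/KCl/MgCl2 buffer. Reaction started with 500 μM ATP and 400 μM L-methionine (substrate-mix concentrations), run 60 min at 25 °C. Phosphate measured colorimetrically against a phosphate standard curve to give IC50.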

[1] = tested on: SAM in HCT116 human colon carcinoma cell line with MTAP gene deleted (MTAP −/−); test: Cellular assay of target engagement (SAM), LC-MS/MS, 72 hrs; format: cell-based; conditions: HCT-116, IC50 bin with Max Inh., read-out: Cell 72 h SAM Inhibition (MTAP −/−)
Procedure, shortened: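 MTAP-deleted HCT116 cells plated 24 h, then given 10-point 3-fold dilutions for 72 hrs at 37° C. Intracellular SAM extracted in cold 80% methanol with 1M acetic acid and d3-SAM standard, quantified by LC-MS/MS (MRM m/z 399.2→250.1); IC50 derived.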

HCT116 MTAP−/− = test: Inhibition of cellular proliferation, 4 days, Cell Titer Glo, HCT116 MTAP−/−; format: cell-based; conditions: Homo sapiens, HCT-116, 96 h, IC50 bin with Max Inh., read-out: 4 Day Relative Growth Inhibition (MTAP −/−)
Procedure, shortened: (§1)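 Isogenic HCT116 pair differing only in MTAP status, plated 24 h before treatment with 10-point 3-fold dilutions; 4 days at 37° C./5% CO2. Cell Titer Glo luminescence, blank-subtracted and normalised to 0.2% DMSO control, gives percentage proliferation vs log molar concentration for IC50.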

HCT116 MTAP+/+ = test: Inhibition of cellular proliferation, 4 days, Cell Titer Glo, HCT116 MTAP+/+; format: cell-based; conditions: Homo sapiens, HCT-116, 96 h, IC50 bin with Max Inh., read-out: 4 Day Relative Growth Inhibition (MTAP +/+)
Procedure, shortened: as §1

T1 sequence (P31153 whole entry): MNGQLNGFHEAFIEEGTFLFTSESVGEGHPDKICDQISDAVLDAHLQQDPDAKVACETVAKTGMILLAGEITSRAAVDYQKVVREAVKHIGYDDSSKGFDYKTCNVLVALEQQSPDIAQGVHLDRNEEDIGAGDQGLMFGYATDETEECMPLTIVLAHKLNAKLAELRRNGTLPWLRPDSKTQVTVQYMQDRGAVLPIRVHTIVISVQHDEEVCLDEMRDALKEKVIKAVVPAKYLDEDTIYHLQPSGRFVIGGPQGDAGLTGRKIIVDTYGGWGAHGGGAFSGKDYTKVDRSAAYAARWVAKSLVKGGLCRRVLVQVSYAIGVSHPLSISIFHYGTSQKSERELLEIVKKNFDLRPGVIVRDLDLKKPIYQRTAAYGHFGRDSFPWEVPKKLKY

Row | IC50 (MAT2A homodimer) [nM] | IC50 [1] [nM] | IC50 (HCT116 MTAP−/−) [nM] | IC50 (HCT116 MTAP+/+) [nM] | SMILES
1 | < 100 | < 100 | < 100 | 100 to 1000 | Cn1cc2cc(-n3nc4ncn(CC5CC5)c4c(-c4ccc(OC(F)F)cc4)c3=O)ccc2n1 [Example 186, 5-(cyclopropylmethyl)-4-[4-(difluoromethoxy)phenyl]-2-(2-methyl-2H-indazol-5-yl)-2H,3H,5H-imidazo[4,5-c]pyridazin-3-one]
2 | < 100 | 100 to 1000 | 100 to 1000 | > 1000 | Cc1ccc(-c2c(=O)n(-c3ccc4nn(C)cc4c3)nc3ncn(CC4CC4)c23)cn1 [Example 187, 5-(cyclopropylmethyl)-2-(2-methyl-2H-indazol-5-yl)-4-(6-methylpyridin-3-yl)-2,5-dihydro-3H-imidazo[4,5-c]pyridazin-3-one]
3 | < 100 | < 100 | < 100 | 100 to 1000 | Cn1cc2cc(-n3nc4ncn(CC5CC5)c4c(-c4ccc(Cl)cc4)c3=O)ccc2n1 [Example 188, 4-(4-chlorophenyl)-5-(cyclopropylmethyl)-2-(2-methyl-2H-indazol-5-yl)-2,5-dihydro-3H-imidazo[4,5-c]pyridazin-3-one]
4 | < 100 | 100 to 1000 | 100 to 1000 | > 1000 | Cn1cc2cc(-n3nc4ncn(CC5CC5)c4c(-c4ccc(OC(F)F)nc4)c3=O)ccc2n1 [Example 189, 5-(cyclopropylmethyl)-4-(6-(difluoromethoxy)pyridin-3-yl)-2-(2-methyl-2H-indazol-5-yl)-2,5-dihydro-3H-imidazo[4,5-c]pyridazin-3-one]
5 | < 100 | < 100 | < 100 | > 1000 | Cn1cc2cc(-n3nc4ncn(CC5CC5)c4c(-c4ccc(C5CC5)nc4)c3=O)ccc2n1 [Example 190, 5-(cyclopropylmethyl)-4-(6-cyclopropylpyridin-3-yl)-2-(2-methyl-2H-indazol-5-yl)-2,5-dihydro-3H-imidazo[4,5-c]pyridazin-3-one]
6 | < 100 | < 100 | < 100 | > 1000 | Cc1nc2nn(-c3ccc4nn(C)cc4c3)c(=O)c(-c3ccc(OC(F)F)cc3)c2n1CC1CC1 [Example 191, 5-(cyclopropylmethyl)-4-(4-(difluoromethoxy)phenyl)-6-methyl-2-(2-methyl-2H-indazol-5-yl)-2,5-dihydro-3H-imidazo[4,5-c]pyridazin-3-one]
7 | < 100 | < 100 | < 100 | 100 to 1000 | Cn1cc2cc(-n3nc4ncn(CC5CC5)c4c(-c4ccc(C5CC5)cc4)c3=O)ccc2n1 [Example 192, 5-(cyclopropylmethyl)-4-(4-cyclopropylphenyl)-2-(2-methyl-2H-indazol-5-yl)-2,5-dihydro-3H-imidazo[4,5-c]pyridazin-3-one]
8 | < 100 | < 100 | < 100 | > 1000 | COc1ccc(-c2c(=O)n(-c3ccc4nn(C)cc4c3)nc3ncn(CC4CC4)c23)cc1 [Example 193, 5-(cyclopropylmethyl)-4-(4-methoxyphenyl)-2-(2-methyl-2H-indazol-5-yl)-2,5-dihydro-3H-imidazo[4,5-c]pyridazin-3-one]
9 | < 100 | < 100 | < 100 | 100 to 1000 | [2H]C([2H])([2H])Oc1ccc(-c2c(=O)n(-c3ccc4nn(C)cc4c3)nc3ncn(CC4CC4)c23)cc1 [Example 194, 5-(cyclopropylmethyl)-4-(4-(methoxy-d3)phenyl)-2-(2-methyl-2H-indazol-5-yl)-2,5-dihydro-3H-imidazo[4,5-c]pyridazin-3-one]
10 | < 100 | < 100 | < 100 | > 1000 | COc1ccc(-c2c(=O)n(-c3ccc4nc(C)n(C)c4c3)nc3ncn(CC4CC4)c23)cc1 [Example 195, 5-(cyclopropylmethyl)-2-(1,2-dimethyl-1H-benzo[d]imidazol-6-yl)-4-(4-methoxyphenyl)-2,5-dihydro-3H-imidazo[4,5-c]pyridazin-3-one]
11 | < 100 | < 100 | < 100 | 100 to 1000 | Cn1cc2cc(-n3nc4c(c(-c5ccc(OC(F)F)cc5)c3=O)n(CC3CC3)c(=O)n4C)ccc2n1 [Example 196, 5-(cyclopropylmethyl)-4-[4-(difluoromethoxy)phenyl]-7-methyl-2-(2-methyl-2H-indazol-5-yl)-2H,3H,5H,6H,7H-imidazolidino[4,5-c]pyridazine-3,6-dione]
12 | < 100 | < 100 | 100 to 1000 | 100 to 1000 | Cn1cc2cc(-n3nc4[nH]c(=O)n(CC5CC5)c4c(-c4ccc(OC(F)F)cc4)c3=O)ccc2n1 [Example 197, 5-(cyclopropylmethyl)-4-(4-(difluoromethoxy)phenyl)-2-(2-methyl-2H-indazol-5-yl)-2,7-dihydro-3H-imidazo[4,5-c]pyridazine-3,6(5H)-dione]
13 | < 100 | < 100 | < 100 | > 1000 | Cn1cc2cc(-n3nc4c(c(-c5ccc(C6CC6)nc5)c3=O)n(CC3CC3)c(=O)n4C)ccc2n1 [Example 198, 5-(cyclopropylmethyl)-4-(6-cyclopropylpyridin-3-yl)-7-methyl-2-(2-methyl-2H-indazol-5-yl)-2,7-dihydro-3H-imidazo[4,5-c]pyridazine-3,6(5H)-dione]
14 | < 100 | < 100 | < 100 | > 1000 | Cn1cc2cc(-n3nc4c(c(-c5ccc(Cl)cc5)c3=O)n(CC3CC3)c(=O)n4C)ccc2n1 [Example 199, 4-(4-chlorophenyl)-5-(cyclopropylmethyl)-7-methyl-2-(2-methyl-2H-indazol-5-yl)-2,7-dihydro-3H-imidazo[4,5-c]pyridazine-3,6(5H)-dione]
15 | < 100 | < 100 | < 100 | 100 to 1000 | Cn1cc2cc(-n3nc4c(c(-c5ccc(C6CC6)cc5)c3=O)n(CC3CC3)c(=O)n4C)ccc2n1 [Example 200, 5-(cyclopropylmethyl)-4-(4-cyclopropylphenyl)-7-methyl-2-(2-methyl-2H-indazol-5-yl)-2,7-dihydro-3H-imidazo[4,5-c]pyridazine-3,6(5H)-dione]
16 | < 100 | < 100 | < 100 | 100 to 1000 | [2H]C([2H])([2H])Oc1ccc(-c2c(=O)n(-c3ccc4nn(C)cc4c3)nc3c2n(CC2CC2)c(=O)n3C)cc1 [Example 201, 5-(cyclopropylmethyl)-4-(4-(methoxy-d3)phenyl)-7-methyl-2-(2-methyl-2H-indazol-5-yl)-2,7-dihydro-3H-imidazo[4,5-c]pyridazine-3,6(5H)-dione]
17 | < 100 | 100 to 1000 | 100 to 1000 | 100 to 1000 | Cc1ccc(-c2c(=O)n(-c3ccc4nn(C)cc4c3)nc3c2n(CC2CC2)c(=O)n3C)cn1 [Example 202, 5-(cyclopropylmethyl)-7-methyl-2-(2-methyl-2H-indazol-5-yl)-4-(6-methylpyridin-3-yl)-2,7-dihydro-3H-imidazo[4,5-c]pyridazine-3,6(5H)-dione]
18 | < 100 | < 100 | < 100 | 100 to 1000 | Cn1cc2cc(-n3nc4[nH]c(=O)n(CC5CC5)c4c(-c4ccc(C5CC5)nc4)c3=O)ccc2n1 [Example 203, 5-(cyclopropylmethyl)-4-(6-cyclopropylpyridin-3-yl)-2-(2-methyl-2H-indazol-5-yl)-2,7-dihydro-3H-imidazo[4,5-c]pyridazine-3,6(5H)-dione]
